Measurements as given in BindingDB's records for doi:10.7270/Q2T43RJV (Nmmlsc, 2010).

Target: Guanine nucleotide-binding protein G(o) subunit alpha (Homo sapiens, UniProt P09471)
Test: modulators of RGS4 binding to Galphao – biochemical, multiplexed bead assay, additional SAR round, SAR follow-up (AID 2829)

Guanine nucleotide-binding protein G(o) subunit alpha, sequence (P09471 whole entry): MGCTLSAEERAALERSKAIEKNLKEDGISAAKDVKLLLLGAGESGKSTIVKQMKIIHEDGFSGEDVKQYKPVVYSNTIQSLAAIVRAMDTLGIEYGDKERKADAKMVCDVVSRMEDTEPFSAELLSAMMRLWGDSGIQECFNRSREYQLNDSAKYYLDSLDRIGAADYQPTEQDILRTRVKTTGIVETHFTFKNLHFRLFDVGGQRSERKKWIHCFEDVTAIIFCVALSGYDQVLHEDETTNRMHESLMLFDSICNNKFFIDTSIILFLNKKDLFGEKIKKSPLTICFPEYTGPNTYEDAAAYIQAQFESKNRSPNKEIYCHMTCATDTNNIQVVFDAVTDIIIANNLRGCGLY

Structure (SMILES) | EC50 [µM]
O=C(c1sc2cc([N+](=O)[O-])ccc2c1Cl)N1CCNCC1 | > 30
O=C(NCCCN1CCOCC1)c1sc2cc([N+](=O)[O-])ccc2c1Cl [3-chloranyl-N-(3-morpholin-4-ylpropyl)-6-nitro-1-benzothiophene-2-carboxamide] | > 30
O=C(NCCCn1ccnc1)c1sc2cc([N+](=O)[O-])ccc2c1Cl [3-chloro-N-[3-(1-imidazolyl)propyl]-6-nitro-1-benzothiophene-2-carboxamide] | > 30
NC(=O)c1sc2cc([N+](=O)[O-])ccc2c1Cl [KSC-1-100] | > 30
Cc1ccc2c(Cl)c(C(=O)NCCCN3CCOCC3)sc2c1 [KUC103874N] | > 30
